# From PubChem BioAssay AID1963847 (Molecular Pharmacology Branch, DTP, NCI, 2024)
# Tested on: 415267-285-R-J2-PDC complex spheroid viability
# Experiment: Anticancer human tumor 415267-285-R-J2-PDC patient-derived breast carcinoma cell line growth inhibition [POLQ]
# Conditions: for IC50: curve of first compound; for viability, T/C: stronger effect = lower value
# Procedure, shortened: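 Growth inhibition in 3D: complex spheroids (tumor PDC, HUVEC, MSC) treated with POLQ inhibitor combinations; where Cmax unknown, highest tested concentration 10 microM, except SN-38 at 1 microM.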
# [1] = second compound 0.0316 µM, first compound 0.0316 µM
# [2] = second compound 0.0316 µM, first compound 0.1 µM
# [3] = second compound 0.0316 µM, first compound 0.316 µM
# [4] = second compound 0.0316 µM, first compound 1 µM
# [5] = second compound 0.0316 µM, first compound 3.16 µM
# [6] = second compound 0.0316 µM, first compound 10 µM
# [7] = second compound 0.1 µM, first compound 0.0316 µM
# [8] = second compound 0.1 µM, first compound 0.1 µM
# [9] = second compound 0.1 µM, first compound 0.316 µM
# [10] = second compound 0.1 µM, first compound 1 µM
# [11] = second compound 0.1 µM, first compound 3.16 µM
# [12] = second compound 0.1 µM, first compound 10 µM
# [13] = second compound 0.316 µM, first compound 0.0316 µM
# [14] = second compound 0.316 µM, first compound 0.1 µM
# [15] = second compound 0.316 µM, first compound 0.316 µM
# [16] = second compound 0.316 µM, first compound 1 µM
# [17] = second compound 0.316 µM, first compound 3.16 µM
# [18] = second compound 0.316 µM, first compound 10 µM
# [19] = second compound 1 µM, first compound 0.0316 µM
# [20] = second compound 1 µM, first compound 0.1 µM
# [21] = second compound 1 µM, first compound 0.316 µM
# [22] = second compound 1 µM, first compound 1 µM
# [23] = second compound 1 µM, first compound 3.16 µM
# [24] = second compound 1 µM, first compound 10 µM
# [25] = second compound 3.16 µM, first compound 0.0316 µM
# [26] = second compound 3.16 µM, first compound 0.1 µM
# [27] = second compound 3.16 µM, first compound 0.316 µM
# [28] = second compound 3.16 µM, first compound 1 µM
# [29] = second compound 3.16 µM, first compound 3.16 µM
# [30] = second compound 3.16 µM, first compound 10 µM
# [31] = second compound 10 µM, first compound 0.0316 µM
# [32] = second compound 10 µM, first compound 0.1 µM
# [33] = second compound 10 µM, first compound 0.316 µM
# [34] = second compound 10 µM, first compound 1 µM
# [35] = second compound 10 µM, first compound 3.16 µM
# [36] = second compound 10 µM, first compound 10 µM
# 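Also: spheroids exposed to compounds for one week before readout.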
# 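For viability, T/C in this document: luminescence used as stand-in measure of viable cells; 100% = DMSO vehicle control viability.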
smiles,measurement,setting,value
COc1cc2cc(C(=O)CCC(=O)O)sc2cc1OC + COC1C(OC(N)=O)C(O)C(Oc2ccc3c(O)c(NC(=O)c4ccc(O)c(CC=C(C)C)c4)c(=O)oc3c2C)OC1(C)C,IC50,second compound 0.0316 µM,> 10 µM
same,IC50,second compound 0.1 µM,> 10 µM
same,IC50,second compound 0.316 µM,> 10 µM
same,IC50,second compound 1 µM,> 10 µM
same,IC50,second compound 3.16 µM,> 10 µM
same,IC50,second compound 10 µM,> 10 µM
same,"viability, T/C",[1],99.7%
same,"viability, T/C",[2],104%
same,"viability, T/C",[3],101%
same,"viability, T/C",[4],104%
same,"viability, T/C",[5],103%
same,"viability, T/C",[6],102%
same,"viability, T/C",[7],102%
same,"viability, T/C",[8],106%
same,"viability, T/C",[9],97.7%
same,"viability, T/C",[10],107%
same,"viability, T/C",[11],102%
same,"viability, T/C",[12],109%
same,"viability, T/C",[13],107%
same,"viability, T/C",[14],97.3%
same,"viability, T/C",[15],101%
same,"viability, T/C",[16],98.6%
same,"viability, T/C",[17],117%
same,"viability, T/C",[18],105%
same,"viability, T/C",[19],98.7%
same,"viability, T/C",[20],111%
same,"viability, T/C",[21],109%
same,"viability, T/C",[22],107%
same,"viability, T/C",[23],104%
same,"viability, T/C",[24],106%
same,"viability, T/C",[25],96.1%
same,"viability, T/C",[26],105%
same,"viability, T/C",[27],101%
same,"viability, T/C",[28],113%
same,"viability, T/C",[29],96%
same,"viability, T/C",[30],98.1%
same,"viability, T/C",[31],101%
same,"viability, T/C",[32],109%
same,"viability, T/C",[33],102%
same,"viability, T/C",[34],102%
same,"viability, T/C",[35],96.7%
same,"viability, T/C",[36],104%
C#Cc1c(F)ccc2cc(O)cc(-c3ncc4c(N5CC6CCC(C5)N6)nc(OCC56CCCN5CC(F)C6)nc4c3F)c12 (stereo unspecified) + Cc1cccc(N(C)C(=O)C2C(O)CCN2c2nc(C)cc(C(F)(F)F)c2C#N)c1,IC50,second compound 0.0316 µM,> 10 µM
same,IC50,second compound 0.1 µM,> 10 µM
same,IC50,second compound 0.316 µM,> 10 µM
same,IC50,second compound 1 µM,> 10 µM
same,IC50,second compound 3.16 µM,> 10 µM
same,IC50,second compound 10 µM,> 10 µM
same,"viability, T/C",[1],96.9%
same,"viability, T/C",[2],95.5%
same,"viability, T/C",[3],104%
same,"viability, T/C",[4],104%
same,"viability, T/C",[5],111%
same,"viability, T/C",[6],101%
same,"viability, T/C",[7],91.2%
same,"viability, T/C",[8],99.8%
same,"viability, T/C",[9],91%
same,"viability, T/C",[10],99.8%
same,"viability, T/C",[11],104%
same,"viability, T/C",[12],102%
same,"viability, T/C",[13],112%
same,"viability, T/C",[14],102%
same,"viability, T/C",[15],100%
same,"viability, T/C",[16],115%
same,"viability, T/C",[17],113%
same,"viability, T/C",[18],104%
same,"viability, T/C",[19],101%
same,"viability, T/C",[20],106%
same,"viability, T/C",[21],92.9%
same,"viability, T/C",[22],117%
same,"viability, T/C",[23],106%
same,"viability, T/C",[24],109%
same,"viability, T/C",[25],113%
same,"viability, T/C",[26],98.8%
same,"viability, T/C",[27],104%
same,"viability, T/C",[28],115%
same,"viability, T/C",[29],91.3%
same,"viability, T/C",[30],98.7%
same,"viability, T/C",[31],105%
same,"viability, T/C",[32],95.4%
same,"viability, T/C",[33],95.6%
same,"viability, T/C",[34],98%
same,"viability, T/C",[35],101%
same,"viability, T/C",[36],98.4%
COc1cccc(OCCCN)c1-c1cc(Nc2cnc(C#N)cn2)n[nH]1 + Nc1ccc(C#CCN(C(=O)Cc2ncc(C(F)(F)F)cc2C(F)(F)F)c2ccc(F)cc2)nn1,IC50,second compound 0.0316 µM,0.00716 µM
same,IC50,second compound 0.1 µM,0.00619 µM
same,IC50,second compound 0.316 µM,0.00672 µM
same,IC50,second compound 1 µM,0.00596 µM
same,IC50,second compound 3.16 µM,0.00577 µM
same,IC50,second compound 10 µM,0.0059 µM
same,"viability, T/C","second compound 0.0316 µM, first compound 0.00316 µM",99%
same,"viability, T/C","second compound 0.0316 µM, first compound 0.01 µM",29.9%
same,"viability, T/C",[1],6.2%
same,"viability, T/C",[2],5.95%
same,"viability, T/C",[3],4.32%
same,"viability, T/C",[4],4.9%
same,"viability, T/C","second compound 0.1 µM, first compound 0.00316 µM",94.9%
same,"viability, T/C","second compound 0.1 µM, first compound 0.01 µM",18%
same,"viability, T/C",[7],5.46%
same,"viability, T/C",[8],5.78%
same,"viability, T/C",[9],5.23%
same,"viability, T/C",[10],3.98%
same,"viability, T/C","second compound 0.316 µM, first compound 0.00316 µM",119%
same,"viability, T/C","second compound 0.316 µM, first compound 0.01 µM",13.8%
same,"viability, T/C",[13],5.29%
same,"viability, T/C",[14],4.56%
same,"viability, T/C",[15],4.96%
same,"viability, T/C",[16],4.07%
same,"viability, T/C","second compound 1 µM, first compound 0.00316 µM",101%
same,"viability, T/C","second compound 1 µM, first compound 0.01 µM",8.35%
same,"viability, T/C",[19],5.83%
same,"viability, T/C",[20],5.25%
same,"viability, T/C",[21],5.41%
same,"viability, T/C",[22],4.11%
same,"viability, T/C","second compound 3.16 µM, first compound 0.00316 µM",94.9%
same,"viability, T/C","second compound 3.16 µM, first compound 0.01 µM",9.02%
same,"viability, T/C",[25],5.49%
same,"viability, T/C",[26],5.19%
same,"viability, T/C",[27],6.6%
same,"viability, T/C",[28],4.85%
same,"viability, T/C","second compound 10 µM, first compound 0.00316 µM",100%
same,"viability, T/C","second compound 10 µM, first compound 0.01 µM",7.29%
same,"viability, T/C",[31],6.73%
same,"viability, T/C",[32],5.13%
same,"viability, T/C",[33],4.64%
same,"viability, T/C",[34],4.87%
